Measured values as given in US20120022142A1, “RNA Interference Mediated Inhibition of Signal Transducer and Activator of Transcription 1 (STAT1) Gene Expression Using Short Interfering Nucleic Acid (siNA)” (Merck Sharp & Dohme Corp., priority 2009, published 2012).
[invAb] = inverted abasic unit; m = 2'-O-methyl; r = 2'-OH (RNA); f = 2'-fluoro

Tests used:
[1] = tested on: STAT1 mRNA; assay: STAT1 mRNA level at 24, 48 and 72 hours post-transfection in A549 cells; type: cell-based, human; conditions: STAT1 mRNA remaining vs control, A549, 30 nM; for mRNA 24 hr: 24 hr post-transfection; for mRNA 48 hr: 48 hr post-transfection; for mRNA 72 hr: 72 hr post-transfection
Experimental: (§1) A549 cells were plated in 6-well plates at final counts of 70,000 cells/well in 2 ml of complete growth media (Ham's F12, Cellgro Cat# 10-080-CV+10% FBS). Transfection was performed using 2.5 uL of RNAiMax (Invitrogen Cat# 13778-150) per well. Final concentration of siNAs was 30, 3, 0.3, 0.03, 0.003, and 0.0003 nM done in duplicate. The siNAs were incubated for 24-72 hours. The duplicate samples were pooled to prepare protein lysates and RNA using the “PARIS” Protein and RNA Isolation System from Ambion, Cat# 1921. The total protein in the lysates was measured using a Bradford Dye Reagent (Bio-Rad, Cat# 500-0205).SDS-PAGE/Western Blotting was performed on the on the protein samples and RT-PCR on the RNA samples.
A series of probes and primers were used to detect the various mRNA transcripts of the genes of β-Actin (human cell line only), and of STAT1 and GAPDH in mouse and human cell lines. All Taqman probes and primers for the experiments here-in described were supplied as pre-validated sets by Applied Biosystems, Inc. (see Table 2).
(§2) An assessment of the level of mRNA at each timepoint was also made and protein samples from the treated cells were used in Western blots with an α-STAT1 antibody. (Clontech, Cat# 610185) and anti-Tubulin Ab (Sigma # T6199) in human A549 cells. Cells were transfected 24, 48 or 72 hours before harvesting total protein and the final concentration of siNAs was 30 nM. Lanes were loaded with 10 ug of total protein. Quantification was done of both the STAT1α and the STAT1β proteins together. All the siNAs tested reduced STAT1 protein at each of the tested timepoints, with the highest degree of protein reduction being observed at 72 hours post-transfection.

[2] = tested on: STAT1 protein; assay: STAT1 Western Blot in transfected A549 cells; type: cell-based, human; conditions: % protein remaining (STAT1α and STAT1β together), A549, 30 nM; for Protein 24 hr: 24 hr post-transfection; for Protein 48 hr: 48 hr post-transfection; for Protein 72 hr: 72 hr post-transfection
Experimental: as §1
The protein source for the Western Blot experiments were from transfection of A549 cells in a 6 well plate, as described above.
Protein samples were diluted 1:1 in 2× Laemmli buffer with 5% β-mercapto-ethanol and incubated at 95° C. for 5 minutes. 10 ug of protein was loaded in each lane of 7.5% Tris-HCl gel. One lane was designated for MagicMark Protein Standard (Invitrogen # LC5602). Another lane was designated for a Precision Plus Protein Standard (Bio-Rad, Cat# 161-0374). The gel was run at 100V for approximately 2 hours. Protein was transferred to a PVDF membrane at 100V for 60 minutes. Once the transfer was finished, the membrane was blocked in 1% Casein in PBS (BioRad Cat#161-0783) for 1 hour on a plate rocker at room temperature followed by the overnight incubation at 4° C. with STAT1 primary antibody (Clontech, Cat# 610185) diluted 1:500 in 1% Casein in PBS. On the next day, the blot was washed 4×5 minutes in PBST (0.1% Tween-20 in PBS) solution and incubated for 30 minutes at room temperature with goat anti-mouse secondary antibody (Pierce Cat #3 31430) diluted 1:20,000 in 1% Casein in PBS. Then, the blot was washed 4×5 minutes with PBST, rinsed with PBS, and incubated for 1 minute with ECL Western Blotting Substrate (Pierce Biotechnology, Cat# 32106). The bands were visualized on the Bio-Rad VersaDoc Imager.
The level of protein was quantified using the Bio-Rad VersaDoc Imager according to the protocols of that piece of equipment. A pixel count was performed in each lane using an area of identical size. Each sample was then compared to the appropriate control treated sample and converted to a percent of protein remaining compared to control.
as §2

Substance | mRNA 24 hr [1] | mRNA 48 hr [1] | mRNA 72 hr [1] | Protein 24 hr [2] | Protein 48 hr [2] | Protein 72 hr [2]
25368-DC: STAT1 siNA duplex, human target site 782; modified strands SEQ ID NO: 73 and 74 (chain 1 GUAAAGUCAGAAAUGUGAATT; chain 2 UUCACAUUUCUGACUUUACUU; chain 1: DNA at AGT, 2'-fluoro at CU, [invAb] at 5' end, 3' end, backbone not given here; chain 2: sugars from the 5' end rrrmfmfffffmmffffmfmm, backbone not given here) | 3% | 3% | 3% | 80% | 54% | 20%
25372-DC: STAT1 siNA duplex, human target site 968; modified strands SEQ ID NO: 81 and 82 (chain 1 UUGACAAUAAGAGAAAGGATT; chain 2 UCCUUUCUCUUAUUGUCAAUU; chain 1: DNA at AGT, 2'-fluoro at CU, [invAb] at 5' end, 3' end, backbone not given here; chain 2: sugars from the 5' end rrrffffffffmffmffmmmm, backbone not given here) | 4% | 3% | 3% | 76% | 54% | 29%
25367-DC: STAT1 siNA duplex, human target site 966; modified strands SEQ ID NO: 71 and 72 (chain 1 GCUUGACAAUAAGAGAAAGTT; chain 2 CUUUCUCUUAUUGUCAAGCUU; chain 1: DNA at AGT, 2'-fluoro at CU, [invAb] at 5' end, 3' end, backbone not given here; chain 2: sugars from the 5' end rrrffffffmffmffmmmfmm, backbone not given here) | 3% | 2% | 2% | 83% | 53% | 30%
25369-DC: STAT1 siNA duplex, human target site 602; modified strands SEQ ID NO: 75 and 76 (chain 1 GGAAAAGCAAGCGUAAUCUTT; chain 2 AGAUUACGCUUGCUUUUCCUU; chain 1: DNA at AGT, 2'-fluoro at CU, [invAb] at 5' end, 3' end, backbone not given here; chain 2: sugars from the 5' end rrrffmfmfffmfffffffmm, backbone not given here) | 8% | 7% | 14% | 85% | 58% | 38%
25351-DC: STAT1 siNA duplex, human target site 2249; modified strands SEQ ID NO: 39 and 40 (chain 1 CCUACACGAAGAAAGAACUTT; chain 2 AGUUCUUUCUUCGUGUAGGUU; chain 1: DNA at AGT, 2'-fluoro at CU, [invAb] at 5' end, 3' end, backbone not given here; chain 2: sugars from the 5' end rrrfffffffffmfmfmmmmm, backbone not given here) | 3% | 2% | 2% | 87% | 48% | 20%
